ChEMBL document CHEMBL6177982, “Structural Optimization of Pyrazole Compounds as Hsp90 Regulators with Enhanced Antitumor Activity” (J Med Chem, 2025)
pIC50, pKd: −log10 of the molar value. Active and inactive are the calls of the source. The calls are words filed in the database; no cut-off is given here.

Key:
HCT-116 [1] = experiment: Antiproliferative activity against CDC37 knockout human HCT-116 cells assessed as inhibition of cell proliferation incubated for 72 hrs by MTT assay; format: functional, cell-based; conditions: HCT-116, 72 h
HCT-116 [2] = experiment: Antiproliferative activity against human HCT-116 cells assessed as inhibition of cell proliferation incubated for 72 hrs by MTT assay; format: functional, cell-based; conditions: HCT-116, 72 h
[3] = Stability of compound in simulated intestinal fluid at 100 uM incubated for 12 hrs; format: physicochemical; conditions: simulated gi fluid
[4] = Metabolic stability in human liver microsomes assessed as terminal elimination half-life at 1 uM preincubated for 5 mins followed by NADPH addition and measured up to 120 mins by LC-MS/MS analysis; format: ADME, Microsome; conditions: time < 125 min, read-out: LambdaZ (converted)
[5] = Metabolic stability in human liver microsomes assessed as clearance at 1 uM preincubated for 5 mins followed by NADPH addition and measured up to 120 mins by LC-MS/MS analysis; format: ADME, Microsome; conditions: time < 125 min, read-out: CLH
[6] = Metabolic stability in human liver microsomes assessed as parent compound remaining at 1 uM preincubated for 5 mins followed by NADPH addition and measured after 30 mins by LC-MS/MS analysis; format: ADME, Microsome; conditions: time 35 min, read-out: Stability
[7] = Cmax in male Sprague-Dawley rat at 1 mg/kg, iv by LC-MS/MS analysis; format: ADME, organism-based; conditions: in vivo
[8] = AUC (0 to infinity) in male Sprague-Dawley rat at 1 mg/kg, iv by LC-MS/MS analysis; format: ADME, organism-based; conditions: in vivo
[9] = Volume of distribution at steady state in male Sprague-Dawley rat at 1 mg/kg, iv by LC-MS/MS analysis; format: ADME, organism-based; conditions: in vivo, read-out: Vdss
[10] = Apparent volume of distribution in male Sprague-Dawley rat at 1 mg/kg, iv by LC-MS/MS analysis; format: ADME, organism-based; conditions: in vivo, read-out: Vz
[11] = Clearance in male Sprague-Dawley rat at 1 mg/kg, iv by LC-MS/MS analysis; format: ADME, organism-based; conditions: in vivo
[12] = Tmax in male Sprague-Dawley rat at 5 mg/kg, ip by LC-MS/MS analysis; format: ADME, organism-based; conditions: in vivo
[13] = Cmax in male Sprague-Dawley rat at 5 mg/kg, ip by LC-MS/MS analysis; format: ADME, organism-based; conditions: in vivo
[14] = AUC (0 to infinity) in male Sprague-Dawley rat at 5 mg/kg, ip by LC-MS/MS analysis; format: ADME, organism-based; conditions: in vivo
[15] = Apparent volume of distribution in male Sprague-Dawley rat at 5 mg/kg, ip by LC-MS/MS analysis; format: ADME, organism-based; conditions: in vivo
[16] = Half-life in male Sprague-Dawley rat at 10 mg/kg, IG by LC-MS/MS analysis; format: ADME, organism-based; conditions: in vivo, po
[17] = Cmax in male Sprague-Dawley rat at 10 mg/kg, IG by LC-MS/MS analysis; format: ADME, organism-based; conditions: in vivo, po
[18] = AUC (0 to infinity) in male Sprague-Dawley rat at 10 mg/kg, IG by LC-MS/MS analysis; format: ADME, organism-based; conditions: in vivo, po
Homo sapiens = species: Homo sapiens; experiment: Covalent binding affinity to His-tagged C-terminal HSP90 C598A mutant (unknown origin) assessed as two phase melting curve at 100 uM incubated for 4 hrs by SYPRO fluorescent dye based thermal shift assay
[19] = biological target: T1, Heat shock protein HSP 90-alpha (Homo sapiens, UniProt P07900); experiment: Binding affinity to HSP90alpha (unknown origin) assessed as dissociation constant by ITC analysis
[20] = biological target: T1, Heat shock protein HSP 90-alpha; experiment: Binding affinity to His-tagged HSP90alpha (unknown origin) assessed as dissociation constant by SPR analysis
[21] = biological target: Heat shock protein HSP90 (Homo sapiens) (UniProt P07900+P08238); experiment: Induction of thermal stabilization of HSP90 in human HCT-116 cells at 10 uM at 53 to 55 degreeC by CETSA based Western blot analysis; format: cell-based
[22] = biological target: T1, Heat shock protein HSP 90-alpha; experiment: Covalent binding affinity to recombinant full-length HSP90alpha (unknown origin) at C598 residue assessed as appearance of compound-modified peptide incubated for 12 hrs by LC-MS/MS analysis
HCT-116 [23] = experiment: Induction of CDK4 degradation in human HCT-116 cells incubated for 24 hrs by Western blot analysis; format: cell-based; conditions: dose 0.1-5 µM
HCT-116 [24] = experiment: Upregulation of HSP90 level in human HCT-116 cells at 0.1 to 5 uM incubated for 24 hrs by Western blot analysis; format: functional, cell-based; conditions: dose 0.1-5 µM
HCT-116 [25] = experiment: Inhibition of Myc-tagged HSP90 C598A mutant (unknown origin)/CDC37 (unknown origin) protein-protein interaction transfected in human HCT-116 cells at 0.5 to 5 uM incubated for 12 hrs by co-immunoprecipitation analysis; format: cell-based; conditions: dose 0.5-5 µM
HCT-116 [26] = experiment: Inhibition of Myc-tagged HSP90 (unknown origin)/AKT(unknown origin) protein-protein interaction transfected in human HCT-116 cells at 1 to 5 uM incubated for 12 hrs by co-immunoprecipitation analysis; format: cell-based; conditions: dose 1-5 µM
HCT-116 [27] = experiment: Inhibition of Myc-tagged HSP90 (unknown origin)/CDK4 (unknown origin) protein-protein interaction transfected in human HCT-116 cells at 1 to 5 uM incubated for 12 hrs by co-immunoprecipitation analysis; format: cell-based; conditions: dose 1-5 µM
HCT-116 [28] = experiment: Inhibition of Myc-tagged HSP90 C598A mutant (unknown origin)/AKT(unknown origin) protein-protein interaction transfected in human HCT-116 cells at 1 to 5 uM incubated for 12 hrs by co-immunoprecipitation analysis; format: cell-based; conditions: dose 1-5 µM
HCT-116 [29] = experiment: Inhibition of Myc-tagged HSP90 C598A mutant (unknown origin)/HSF1 (unknown origin) protein-protein interaction transfected in human HCT-116 cells at 1 to 5 uM incubated for 12 hrs by co-immunoprecipitation analysis; format: cell-based; conditions: dose 1-5 µM
HT-1080 = experiment: Antiproliferative activity against human HT-1080 cells assessed as inhibition of cell proliferation incubated for 72 hrs by MTT assay; format: functional, cell-based; conditions: HT-1080, 72 h
HCT-116 [30] = experiment: Antiproliferative activity against human HCT-116 cells assessed as inhibition of cell proliferation incubated for 24 hrs by MTT assay; format: functional, cell-based; conditions: HCT-116, 24 h
HCT-116 [31] = experiment: Antitumor activity against human HCT-116 cells xenografted in female Balb/c nude mouse assessed as inhibition of tumor growth at 5 to 30 mg/kg, ip administered every two days for 14 days; format: functional, organism-based; conditions: dose 5-30 mg/kg, time 14.0 day
Mus musculus = experiment: Upregulation of HSP70 protein level in female Balb/c mouse tumor xenografted with human HCT-116 cells at 5 to 30 mg/kg, ip administered every two days for 14 days by Western blot analysis; format: functional, organism-based; conditions: dose 5-30 mg/kg, time 14.0 day
[32] = Toxicity in female Balb/c nude mouse xenografted with human HCT-116 cells assessed as effect on kidney weight at 5 to 30 mg/kg, ip administered every two days for 14 days; format: organism-based; conditions: in vivo, 336 h, dose 5-30 mg/kg, time 14 day
[33] = Toxicity in female Balb/c nude mouse xenografted with human HCT-116 cells assessed as pathological changes in liver at 5 to 30 mg/kg, ip administered every two days for 14 days by H and E staining based analysis; format: organism-based; conditions: in vivo, 336 h, dose 5-30 mg/kg, time 14 day
[34] = Toxicity in female Balb/c nude mouse xenografted with human HCT-116 cells assessed as pathological changes in spleen at 5 to 30 mg/kg, ip administered every two days for 14 days by H and E staining based analysis; format: organism-based; conditions: in vivo, 336 h, dose 5-30 mg/kg, time 14 day

Structure (SMILES): O=S(=O)(/C=C/c1cn(-c2ccccc2)nc1-c1cccnc1)c1ccccc1
- pIC50 (HCT-116 [1]): < 4.30
- pIC50 (HCT-116 [2]): 5.97
- Stability [3]: Stable
- half-life at 1 µM [4]: 53.4 min
- microsomal CLint at 1 µM [5]: 26 µL/min/mg
- remaining at 0.5 h, 1 µM [6]: 64%
- Cmax [7]: 3680 ng/mL
- AUC(0-inf) [8]: 1460 ng·h/mL
- Vd [9]: 0.52 L/kg
- Vd [10]: 0.86 L/kg
- clearance [11]: 11.8 mL/min/kg
- Tmax [12]: 8.4 min
- Cmax [13]: 8350 ng/mL
- AUC(0-inf) [14]: 6770 ng·h/mL
- Vz [15]: 0.97 L/kg
- half-life [16]: 121 min
- Cmax [17]: 2400 ng/mL
- AUC(0-inf) [18]: 9810 ng·h/mL
- Activity (Homo sapiens): inactive
- pKd [19]: 5.40
- pKd [20]: 5.86
- Activity [21]: Active
- Activity [22]: Active
- Activity (HCT-116 [23]): Dose-dependent-effect
- Activity (HCT-116 [24]): inactive
- inhibition (HCT-116 [25]): inactive
- inhibition (HCT-116 [26]): Active
- inhibition (HCT-116 [27]): Active
- inhibition (HCT-116 [28]): inactive
- inhibition (HCT-116 [29]): inactive
- pIC50 (HT-1080): 5.57
- pIC50 (HCT-116 [30]): 5.20
- Activity (HCT-116 [31]): Active
- Activity (Mus musculus): inactive
- Activity [32]: Non-toxic
- Activity [33]: Non-toxic
- Activity [34]: Non-toxic
